Experimental data taken from the supplement of paper PMC10307832.

Experiments:
Test in all cases: relative viability (nuclei count vs DMSO), 5 days (fraction); higher = more cells survive
EPLC-272H = system: EPLC-272H
Method in brief: (§1)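 For relative viability, nuclei counts in treated wells were divided by those in vehicle wells. Lung cancer cell lines had been pin-tool dosed in 1536-well plates the day after seeding and cultured for 5 days, then fixed and stained in one step (final 0.05% Triton X-100, 1% formaldehyde, 1 ug/ml Hoechst) and imaged at 4×. Doses were one drug alone or a fixed anchor-drug dose plus five library-drug doses (not always all listed) in √10 steps, and values are duplicate-plate medians.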

NCI-H1563 = system: NCI-H1563
Method in brief: as §1

EMC-BAC-2 = system: EMC-BAC-2
Method in brief: as §1

NCI-H322M = system: NCI-H322M
Method in brief: as §1

NCI-H2405 = system: NCI-H2405
Method in brief: as §1

H3255 = system: H3255
Method in brief: as §1

NCI-H23 = system: NCI-H23
Method in brief: as §1

NCI-H2087 = system: NCI-H2087
Method in brief: as §1

NCI-H1395 = system: NCI-H1395
Method in brief: as §1

NCI-H520 = system: NCI-H520
Method in brief: as §1

NCI-H1355 = system: NCI-H1355
Method in brief: as §1

NCI-H1944 = system: NCI-H1944
Method in brief: as §1

NCI-H1651 = system: NCI-H1651
Method in brief: as §1

LCLC-97TM1 = system: LCLC-97TM1
Method in brief: as §1

NCI-H1993 = system: NCI-H1993
Method in brief: as §1

NCI-H650 = system: NCI-H650
Method in brief: as §1

UMC-11 = system: UMC-11
Method in brief: as §1

NCI-H2085 = system: NCI-H2085
Method in brief: as §1

HCC-827 = system: HCC-827
Method in brief: as §1

HCC-44 = system: HCC-44
Method in brief: as §1

LCLC-103H = system: LCLC-103H
Method in brief: as §1

SK-MES-1 = system: SK-MES-1
Method in brief: as §1

ChaGo-K-1 = system: ChaGo-K-1
Method in brief: as §1

NCI-H1793 = system: NCI-H1793
Method in brief: as §1

For `Clc1ccc(Nc2nnc(Cc3ccncc3)c3ccccc23)cc1` [Vatalanib] + Nc1nc2[nH]cc(CCc3ccc(C(=O)N[C@@H](CCC(=O)O)C(=O)O)cc3)c2c(=O)[nH]1 [Pemetrexed] (partner 0.2 µM), the relative viability (EPLC-272H; first compound 0.04 µM) was 0.349, the relative viability (EPLC-272H; first compound 0.1265 µM) was 0.334 and the relative viability (EPLC-272H; first compound 0.4 µM) was 0.781. The relative viability (EPLC-272H; first compound 1.265 µM) was 0.295, the relative viability (EPLC-272H; first compound 4 µM) was 0.376 and the relative viability (NCI-H1563; first compound 0.04 µM) was 0.804. It also gave a relative viability (NCI-H1563; first compound 0.1265 µM) of 0.772, a relative viability (NCI-H1563; first compound 0.4 µM) of 0.857 and a relative viability (NCI-H1563; first compound 1.265 µM) of 0.758. It also gave a relative viability (NCI-H1563; first compound 4 µM) of 0.77, a relative viability (EMC-BAC-2; first compound 0.04 µM) of 0.452 and a relative viability (EMC-BAC-2; first compound 0.1265 µM) of 0.427. It also gave a relative viability (EMC-BAC-2; first compound 0.4 µM) of 0.456, a relative viability (EMC-BAC-2; first compound 4 µM) of 0.463 and a relative viability (NCI-H322M; first compound 0.04 µM) of 0.609. The relative viability (NCI-H322M; first compound 0.1265 µM) was 0.656, the relative viability (NCI-H322M; first compound 0.4 µM) was 0.678 and the relative viability (NCI-H322M; first compound 4 µM) was 0.572. The relative viability (NCI-H2405; first compound 0.04 µM) was 1.04, the relative viability (NCI-H2405; first compound 0.1265 µM) was 1.04 and the relative viability (NCI-H2405; first compound 0.4 µM) was 0.981. It also gave a relative viability (NCI-H2405; first compound 4 µM) of 1.01, a relative viability (H3255; first compound 0.04 µM) of 0.543 and a relative viability (H3255; first compound 0.1265 µM) of 0.536. The relative viability (H3255; first compound 0.4 µM) was 0.529, the relative viability (H3255; first compound 1.265 µM) was 0.512 and the relative viability (H3255; first compound 4 µM) was 0.523. It also gave a relative viability (NCI-H23; first compound 0.04 µM) of 0.579, a relative viability (NCI-H23; first compound 0.1265 µM) of 0.654 and a relative viability (NCI-H23; first compound 0.4 µM) of 0.728. The relative viability (NCI-H23; first compound 1.265 µM) was 0.59, the relative viability (NCI-H23; first compound 4 µM) was 0.544 and the relative viability (NCI-H2087; first compound 0.04 µM) was 0.666. The relative viability (NCI-H2087; first compound 0.1265 µM) was 0.659, the relative viability (NCI-H2087; first compound 0.4 µM) was 0.685 and the relative viability (NCI-H2087; first compound 1.265 µM) was 0.64. For the same compound, the relative viability (NCI-H2087; first compound 4 µM) was 0.682, the relative viability (NCI-H1395; first compound 0.04 µM) was 0.855 and the relative viability (NCI-H1395; first compound 0.1265 µM) was 0.764. For the same compound, the relative viability (NCI-H1395; first compound 0.4 µM) was 0.767, the relative viability (NCI-H1395; first compound 4 µM) was 0.842 and the relative viability (NCI-H520; first compound 0.04 µM) was 0.676. For the same compound, the relative viability (NCI-H520; first compound 0.1265 µM) was 0.654, the relative viability (NCI-H520; first compound 0.4 µM) was 0.751 and the relative viability (NCI-H520; first compound 1.265 µM) was 0.625. For the same compound, the relative viability (NCI-H520; first compound 4 µM) was 0.62, the relative viability (NCI-H1355; first compound 0.04 µM) was 0.965 and the relative viability (NCI-H1355; first compound 0.1265 µM) was 1.01. The relative viability (NCI-H1355; first compound 0.4 µM) was 1.08, the relative viability (NCI-H1355; first compound 1.265 µM) was 0.979 and the relative viability (NCI-H1355; first compound 4 µM) was 0.936. For the same compound, the relative viability (NCI-H1944; first compound 0.04 µM) was 0.544, the relative viability (NCI-H1944; first compound 0.1265 µM) was 0.669 and the relative viability (NCI-H1944; first compound 0.4 µM) was 0.63. It also gave a relative viability (NCI-H1944; first compound 1.265 µM) of 0.583, a relative viability (NCI-H1944; first compound 4 µM) of 0.558 and a relative viability (NCI-H1651; first compound 0.04 µM) of 0.512. The relative viability (NCI-H1651; first compound 0.1265 µM) was 0.558, the relative viability (NCI-H1651; first compound 0.4 µM) was 0.496 and the relative viability (NCI-H1651; first compound 1.265 µM) was 0.543. It also gave a relative viability (NCI-H1651; first compound 4 µM) of 0.526, a relative viability (LCLC-97TM1; first compound 0.04 µM) of 0.2 and a relative viability (LCLC-97TM1; first compound 0.1265 µM) of 0.177. For the same compound, the relative viability (LCLC-97TM1; first compound 0.4 µM) was 0.177, the relative viability (LCLC-97TM1; first compound 1.265 µM) was 0.149 and the relative viability (LCLC-97TM1; first compound 4 µM) was 0.172. For the same compound, the relative viability (NCI-H1993; first compound 0.04 µM) was 0.581, the relative viability (NCI-H1993; first compound 0.1265 µM) was 0.644 and the relative viability (NCI-H1993; first compound 0.4 µM) was 0.619. It also gave a relative viability (NCI-H1993; first compound 1.265 µM) of 0.501, a relative viability (NCI-H1993; first compound 4 µM) of 0.619 and a relative viability (NCI-H650; first compound 0.04 µM) of 0.931. The relative viability (NCI-H650; first compound 0.1265 µM) was 0.833, the relative viability (NCI-H650; first compound 0.4 µM) was 1.03 and the relative viability (NCI-H650; first compound 1.265 µM) was 0.885. The relative viability (NCI-H650; first compound 4 µM) was 0.996, the relative viability (UMC-11; first compound 0.04 µM) was 0.849 and the relative viability (UMC-11; first compound 0.1265 µM) was 0.808. The relative viability (UMC-11; first compound 0.4 µM) was 0.844, the relative viability (UMC-11; first compound 1.265 µM) was 0.791 and the relative viability (UMC-11; first compound 4 µM) was 0.794. The relative viability (NCI-H2085; first compound 0.04 µM) was 0.844, the relative viability (NCI-H2085; first compound 0.1265 µM) was 0.842 and the relative viability (NCI-H2085; first compound 0.4 µM) was 0.976. It also gave a relative viability (NCI-H2085; first compound 1.265 µM) of 0.892, a relative viability (NCI-H2085; first compound 4 µM) of 0.821 and a relative viability (HCC-827; first compound 0.04 µM) of 0.241. For the same compound, the relative viability (HCC-827; first compound 0.1265 µM) was 0.232, the relative viability (HCC-827; first compound 1.265 µM) was 0.263 and the relative viability (HCC-827; first compound 4 µM) was 0.231. It also gave a relative viability (HCC-44; first compound 0.04 µM) of 0.593, a relative viability (HCC-44; first compound 0.1265 µM) of 0.61 and a relative viability (HCC-44; first compound 0.4 µM) of 0.673. For the same compound, the relative viability (HCC-44; first compound 1.265 µM) was 0.638, the relative viability (HCC-44; first compound 4 µM) was 0.683 and the relative viability (LCLC-103H; first compound 0.04 µM) was 0.343. The relative viability (LCLC-103H; first compound 0.1265 µM) was 0.428, the relative viability (LCLC-103H; first compound 0.4 µM) was 0.449 and the relative viability (LCLC-103H; first compound 1.265 µM) was 0.487. The relative viability (LCLC-103H; first compound 4 µM) was 0.453, the relative viability (SK-MES-1; first compound 0.04 µM) was 0.905 and the relative viability (SK-MES-1; first compound 0.1265 µM) was 0.925. The relative viability (SK-MES-1; first compound 0.4 µM) was 1.05, the relative viability (SK-MES-1; first compound 1.265 µM) was 0.912 and the relative viability (SK-MES-1; first compound 4 µM) was 0.787. It also gave a relative viability (ChaGo-K-1; first compound 0.04 µM) of 0.263, a relative viability (ChaGo-K-1; first compound 0.1265 µM) of 0.294 and a relative viability (ChaGo-K-1; first compound 0.4 µM) of 0.265. It also gave a relative viability (ChaGo-K-1; first compound 1.265 µM) of 0.258, a relative viability (ChaGo-K-1; first compound 4 µM) of 0.26 and a relative viability (NCI-H1793; first compound 0.04 µM) of 0.789. The relative viability (NCI-H1793; first compound 0.1265 µM) was 0.817, the relative viability (NCI-H1793; first compound 0.4 µM) was 1.06 and the relative viability (NCI-H1793; first compound 1.265 µM) was 0.747. For the same compound, the relative viability (NCI-H1793; first compound 4 µM) was 0.714.
